{"source": "patent US20240317866A1", "about": "“Use of Anti-EGFR/Anti-Met Antibody to Treat Gastric or Esophageal Cancer” (Janssen Biotech, Inc., priority 2022, published 2024)", "tested_on": "gastric cancer (GC, including GEJ cancer) expressing EGFR and/or cMet", "experiment": "Phase 2a study of amivantamab monotherapy, gastric cancer cohort: response by RECIST Version 1.1, investigator judgement", "type": "in vivo, human", "excerpt": "Approximately 30 participants with any expression level of EGFR, cMet, or both proteins are enrolled in each of the Phase 2a cohort. However, based on the priorexperiences investigating anti-EGFR andanti-cMet antibodies in gastroesophageal cancers, at least 20 participants expressing IHC 2+ or higher (defined as participants expressing EGFR IHC 2+ or above and/or cMet IHC 2+ or above) are enrolled. Additional enrollment in Phase 2a cohorts may be allowed to achieve this minimal enrollment.\nThis is an open-label, multicenter, multi-arm Phase 2 interventional study in participants with previously treated advanced or unresectable GC or EC who are 20 years or older (or the legal age of consent in the jurisdiction in which the study is taking place). Japanese participants with gastric/GEJ or EC who express varying degrees of EGFR, cMet, or both as determined by IHC locally or centrally are enrolled in the GC cohort or EC cohort.\nThe baseline disease assessments are performed as close as possible to the start of treatment, but no more than 28 days prior to the first dose. Subsequent assessments are performed at 6 weeks (+1 week) after initiation of study treatment administration, then every 6 weeks (±1 week) for the first 12 months and then every 12 weeks (±1 week) until objective radiographic disease progression. Timing for each disease assessment is relative to the first dose of study treatment administration, regardless of dose modifications, and continues until disease progression. Any other site at which new disease is suspected is also imaged.\nFor purposes of analysis, the following populations are defined: • (1) All Treated population: All participants who take at least 1 dose of study treatment; • (2) Response evaluable population: All participants who satisfy the following criteria: • Receive at least 1 dose of study treatment; • At least 2 post-baseline efficacy disease assessments, or discontinued treatment for any reason, or have disease progression/death prior to the second post-baseline disease assessment; • (3) Safety population: All participants who take at least 1 dose of study treatment; • (4) Pharmacokinetics population: All participants who receive at least 1 dose of study treatment and have at least 1 evaluable post-baseline measurement; • (5) Immunogenicity population: All participants who receive at least 1 dose of study treatment and have at least 1 evaluable post-baseline measurement.\nThe primary efficacy measure is ORR. Objective response rate is defined as the proportion of participants who achieve either CR or PR, determined by investigator assessment using RECIST Version 1.1. Confirmation of investigator-assessed ORR may be performed through IRC in the Phase 2b.\nDisease Control Rate: Disease control rate is defined as the percentage of participants achieving complete or partial response or stable disease for at least 6 weeks as defined by RECIST Version1.1. The DCR and its 95% CI with Clopper-Pearson method are also calculated.\nNext, response to treatment was evaluated. The “All Treated” patient population were patients who received at least 1 dose of study treatment.", "key": {"[1]": {"conditions": "all treated population, IHC 1+, N=5, 1,050/1,400 mg IV"}, "[2]": {"conditions": "all treated population, IHC 1+, N=5, 1,050/1,400 mg IV, number of participants"}, "[3]": {"conditions": "all treated population, IHC 2+, N=11, 1,050/1,400 mg IV"}, "[4]": {"conditions": "all treated population, IHC 2+, N=11, 1,050/1,400 mg IV, number of participants"}, "[5]": {"conditions": "all treated population, IHC 3+, N=9, 1,050/1,400 mg IV"}, "[6]": {"conditions": "all treated population, IHC 3+, N=9, 1,050/1,400 mg IV, number of participants"}, "[7]": {"conditions": "all treated population, IHC NA, N=4, 1,050/1,400 mg IV"}, "[8]": {"conditions": "all treated population, IHC NA, N=4, 1,050/1,400 mg IV, number of participants"}, "[9]": {"conditions": "all treated population, Total, N=29, 1,050/1,400 mg IV"}, "[10]": {"conditions": "all treated population, Total, N=29, 1,050/1,400 mg IV, number of participants"}, "[11]": {"conditions": "response evaluable population, IHC 1+, N=4, 1,050/1,400 mg IV"}, "[12]": {"conditions": "response evaluable population, IHC 1+, N=4, 1,050/1,400 mg IV, number of participants"}, "[13]": {"conditions": "response evaluable population, IHC 2+, N=11, 1,050/1,400 mg IV"}, "[14]": {"conditions": "response evaluable population, IHC 2+, N=11, 1,050/1,400 mg IV, number of participants"}, "[15]": {"conditions": "response evaluable population, IHC 3+, N=9, 1,050/1,400 mg IV"}, "[16]": {"conditions": "response evaluable population, IHC 3+, N=9, 1,050/1,400 mg IV, number of participants"}, "[17]": {"conditions": "response evaluable population, Total, N=24, 1,050/1,400 mg IV"}, "[18]": {"conditions": "response evaluable population, Total, N=24, 1,050/1,400 mg IV, number of participants"}}}
{"substance": "amivantamab", "values": [{"measurement": "Disease control rate (CR + PR + SD)", "setting": "[1]", "result": "(20.0%)"}, {"measurement": "Not Evaluable (NE)", "setting": "[1]", "result": "(40.0%)"}, {"measurement": "Progressive Disease (PD)", "setting": "[1]", "result": "(40.0%)"}, {"measurement": "Complete response (CR)", "setting": "[2]", "result": 0}, {"measurement": "Disease control rate (CR + PR + SD)", "setting": "[2]", "result": 1}, {"measurement": "Not Evaluable (NE)", "setting": "[2]", "result": 2}, {"measurement": "Objective response rate (CR + PR)", "setting": "[2]", "result": 0}, {"measurement": "Partial response (PR)", "setting": "[2]", "result": 0}, {"measurement": "Progressive Disease (PD)", "setting": "[2]", "result": 2}, {"measurement": "Disease control rate (CR + PR + SD)", "setting": "[3]", "result": "(9.1%)"}, {"measurement": "Not Evaluable (NE)", "setting": "[3]", "result": "(9.1%)"}, {"measurement": "Progressive Disease (PD)", "setting": "[3]", "result": "(81.8%)"}, {"measurement": "Complete response (CR)", "setting": "[4]", "result": 0}, {"measurement": "Disease control rate (CR + PR + SD)", "setting": "[4]", "result": 1}, {"measurement": "Not Evaluable (NE)", "setting": "[4]", "result": 1}, {"measurement": "Objective response rate (CR + PR)", "setting": "[4]", "result": 0}, {"measurement": "Partial response (PR)", "setting": "[4]", "result": 0}, {"measurement": "Progressive Disease (PD)", "setting": "[4]", "result": 9}, {"measurement": "Disease control rate (CR + PR + SD)", "setting": "[5]", "result": "(44.4%)"}, {"measurement": "Objective response rate (CR + PR)", "setting": "[5]", "result": "(11.1%)"}, {"measurement": "Partial response (PR)", "setting": "[5]", "result": "(11.1%)"}, {"measurement": "Progressive Disease (PD)", "setting": "[5]", "result": "(55.6%)"}, {"measurement": "Complete response (CR)", "setting": "[6]", "result": 0}, {"measurement": "Disease control rate (CR + PR + SD)", "setting": "[6]", "result": 4}, {"measurement": "Not Evaluable (NE)", "setting": "[6]", "result": 0}, {"measurement": "Objective response rate (CR + PR)", "setting": "[6]", "result": 1}, {"measurement": "Partial response (PR)", "setting": "[6]", "result": 1}, {"measurement": "Progressive Disease (PD)", "setting": "[6]", "result": 5}, {"measurement": "Disease control rate (CR + PR + SD)", "setting": "[7]", "result": "(25.0%)"}, {"measurement": "Progressive Disease (PD)", "setting": "[7]", "result": "(75.0%)"}, {"measurement": "Complete response (CR)", "setting": "[8]", "result": 0}, {"measurement": "Disease control rate (CR + PR + SD)", "setting": "[8]", "result": 1}, {"measurement": "Not Evaluable (NE)", "setting": "[8]", "result": 0}, {"measurement": "Objective response rate (CR + PR)", "setting": "[8]", "result": 0}, {"measurement": "Partial response (PR)", "setting": "[8]", "result": 0}, {"measurement": "Progressive Disease (PD)", "setting": "[8]", "result": 3}, {"measurement": "Disease control rate (CR + PR + SD)", "setting": "[9]", "result": "(24.1%)"}, {"measurement": "Not Evaluable (NE)", "setting": "[9]", "result": "(10.3%)"}, {"measurement": "Objective response rate (CR + PR)", "setting": "[9]", "result": "(3.4%)"}, {"measurement": "Partial response (PR)", "setting": "[9]", "result": "(3.4%)"}, {"measurement": "Progressive Disease (PD)", "setting": "[9]", "result": "(65.5%)"}, {"measurement": "Complete response (CR)", "setting": "[10]", "result": 0}, {"measurement": "Disease control rate (CR + PR + SD)", "setting": "[10]", "result": 7}, {"measurement": "Not Evaluable (NE)", "setting": "[10]", "result": 3}, {"measurement": "Objective response rate (CR + PR)", "setting": "[10]", "result": 1}, {"measurement": "Partial response (PR)", "setting": "[10]", "result": 1}, {"measurement": "Progressive Disease (PD)", "setting": "[10]", "result": 19}, {"measurement": "Disease control rate (CR + PR + SD)", "setting": "[11]", "result": "(25.0%)"}, {"measurement": "Not Evaluable (NE)", "setting": "[11]", "result": "(25.0%)"}, {"measurement": "Progressive Disease (PD)", "setting": "[11]", "result": "(50.0%)"}, {"measurement": "Complete response (CR)", "setting": "[12]", "result": 0}, {"measurement": "Disease control rate (CR + PR + SD)", "setting": "[12]", "result": 1}, {"measurement": "Not Evaluable (NE)", "setting": "[12]", "result": 1}, {"measurement": "Objective response rate (CR + PR)", "setting": "[12]", "result": 0}, {"measurement": "Partial response (PR)", "setting": "[12]", "result": 0}, {"measurement": "Progressive Disease (PD)", "setting": "[12]", "result": 2}, {"measurement": "Disease control rate (CR + PR + SD)", "setting": "[13]", "result": "(9.1%)"}, {"measurement": "Not Evaluable (NE)", "setting": "[13]", "result": "(9.1%)"}, {"measurement": "Progressive Disease (PD)", "setting": "[13]", "result": "(81.8%)"}, {"measurement": "Complete response (CR)", "setting": "[14]", "result": 0}, {"measurement": "Disease control rate (CR + PR + SD)", "setting": "[14]", "result": 1}, {"measurement": "Not Evaluable (NE)", "setting": "[14]", "result": 1}, {"measurement": "Objective response rate (CR + PR)", "setting": "[14]", "result": 0}, {"measurement": "Partial response (PR)", "setting": "[14]", "result": 0}, {"measurement": "Progressive Disease (PD)", "setting": "[14]", "result": 9}, {"measurement": "Disease control rate (CR + PR + SD)", "setting": "[15]", "result": "(44.4%)"}, {"measurement": "Objective response rate (CR + PR)", "setting": "[15]", "result": "(11.1%)"}, {"measurement": "Partial response (PR)", "setting": "[15]", "result": "(11.1%)"}, {"measurement": "Progressive Disease (PD)", "setting": "[15]", "result": "(55.6%)"}, {"measurement": "Complete response (CR)", "setting": "[16]", "result": 0}, {"measurement": "Disease control rate (CR + PR + SD)", "setting": "[16]", "result": 4}, {"measurement": "Not Evaluable (NE)", "setting": "[16]", "result": 0}, {"measurement": "Objective response rate (CR + PR)", "setting": "[16]", "result": 1}, {"measurement": "Partial response (PR)", "setting": "[16]", "result": 1}, {"measurement": "Progressive Disease (PD)", "setting": "[16]", "result": 5}, {"measurement": "Not Evaluable (NE)", "setting": "[17]", "result": "(8.3%)"}, {"measurement": "Objective response rate (CR + PR)", "setting": "[17]", "result": "(4.2%)"}, {"measurement": "Partial response (PR)", "setting": "[17]", "result": "(4.2%)"}, {"measurement": "Progressive Disease (PD)", "setting": "[17]", "result": "(66.7%)"}, {"measurement": "Complete response (CR)", "setting": "[18]", "result": 0}, {"measurement": "Disease control rate (CR + PR + SD)", "setting": "[18]", "result": 6}, {"measurement": "Not Evaluable (NE)", "setting": "[18]", "result": 2}, {"measurement": "Objective response rate (CR + PR)", "setting": "[18]", "result": 1}, {"measurement": "Partial response (PR)", "setting": "[18]", "result": 1}, {"measurement": "Progressive Disease (PD)", "setting": "[18]", "result": 16}]}
